# Laboratory results reported in patent USRE44733E1, “6-mercapto-cyclodextrin derivatives:reversal agents for drug-induced neuromuscular block” (Merck Sharp & Dohme B.V., priority 1999, dated 2014).
# System: neuromuscular block, induced by the muscle relaxant rocuronium bromide (Roc)
# Assay: Reversal of neuromuscular blockade in anaesthetized guinea pigs in vivo
# Details: for concentration at maximum reversal (at conc.) / % max reversal: anaesthetized guinea pigs, rocuronium bromide steady-state block; for concentration at maximum reversal (at conc.): dose of reversal agent at which % max reversal was seen; for % max reversal: maximum reversal; for ED50: dose producing 50% reversal of steady-state neuromuscular block: anaesthetized male Dunkin-Hartley guinea pigs, steady-state block of 85-90% by continuous rocuronium bromide infusion, reversal agent given by jugular vein catheter, M. gastrocnemius contractions
# Experimental: Reversal of Neuromuscular Blockade in Anaesthetized Guinea Pigs in vivo
# Male Dunkin-Hartley guinea pigs (bodyweight: 600-900 g) were anaesthetized by i.p. administration of 10 mg/kg pentobarbitone and 1000 mg/kg urethane. After tracheotomy, the animals were artificially ventilated using a Harvard small animal ventilator. A catheter was placed into the carotid artery for continuous monitoring of arterial blood pressure and the taking of blood samples for blood gas analysis. Heart rate was derived from the blood pressure signal. The sciatic nerve was stimulated (rectangular pulses of 0.5 ms duration at 10 s (0.1 Hz) intervals at a supramaximal voltage, using a Grass S88 Stimulator) and the force of M. gastrocnemius contractions was measured using a Grass FT03 force-displacement transducer. Contractions, blood pressure and heart rate were recorded on a multichannel Grass 7D recorder. Catheters were placed in both jugular veins. One catheter was used for the continuous infusion of a neuromuscular blocking agent. The infusion rate of the neuromuscular blocking agent was increased until a steady-state block of 85-90% was obtained. The other catheter was used for administration of increasing doses of the reversal agent. During continuous infusion of the neuromuscular blocking agent, single doses of increasing concentration of reversal agent were given. At the end of the experiment, the measured force of muscle contractions was plotted against the concentration of reversal agent, and using regression analysis techniques, the 50% reversal concentration was calculated. Results for the reversal of the neuromuscular block, induced by the muscle relaxant rocuronium bromide (Roc), by the 6-mercapto-cyclodextrin derivatives of Examples 1-19 are presented in Table I. For comparison, the reversal activity of the parent compounds β-cyclodextrin and γ-cyclodextrin are included as well.
SMILES,concentration at maximum reversal (at conc.),% max reversal [%],ED50: dose producing 50% reversal of steady-state neuromuscular block [µmol/kg]
"OCCOCCSCC1OC2OC3C(CSCCOCCO)OC(OC4C(CSCCOCCO)OC(OC5C(CSCCOCCO)OC(OC6C(CSCCOCCO)OC(OC7C(CSCCOCCO)OC(OC8C(CSCCOCCO)OC(OC9C(CSCCOCCO)OC(OC1C(O)C2O)C(O)C9O)C(O)C8O)C(O)C7O)C(O)C6O)C(O)C5O)C(O)C4O)C(O)C3O (stereo not drawn) [example 11, 6-Per-deoxy-6-per(5-hydroxy-3-oxa-pentyl)thio-γ-cyclodextrin]",(2.1) μmol · kg^−1,92,0.47
"O=C([O-])c1ccccc1C(=O)NCCSC[C@H]1O[C@@H]2O[C@H]3[C@H](O)[C@@H](O)[C@@H](O[C@H]4[C@H](O)[C@@H](O)[C@@H](O[C@H]5[C@H](O)[C@@H](O)[C@@H](O[C@H]6[C@H](O)[C@@H](O)[C@@H](O[C@H]7[C@H](O)[C@@H](O)[C@@H](O[C@H]8[C@H](O)[C@@H](O)[C@@H](O[C@H]9[C@H](O)[C@@H](O)[C@@H](O[C@H]1[C@H](O)[C@H]2O)O[C@@H]9CSCCNC(=O)c1ccccc1C(=O)[O-])O[C@@H]8CSCCNC(=O)c1ccccc1C(=O)[O-])O[C@@H]7CSCCNC(=O)c1ccccc1C(=O)[O-])O[C@@H]6CSCCNC(=O)c1ccccc1C(=O)[O-])O[C@@H]5CSCCNC(=O)c1ccccc1C(=O)[O-])O[C@@H]4CSCCNC(=O)c1ccccc1C(=O)[O-])O[C@@H]3CSCCNC(=O)c1ccccc1C(=O)[O-].[Na+].[Na+].[Na+].[Na+].[Na+].[Na+].[Na+].[Na+] [example 12, 6-Per-deoxy-6-per[(2(2-carboxybenzoyl)amino)ethyl]thio-γ-cyclodextrin, Sodium Salt]",(0.48) μmol · kg^−1,95,0.085
"OCCSC[C@H]1O[C@@H]2O[C@H]3[C@H](O)[C@@H](O)[C@@H](O[C@H]4[C@H](O)[C@@H](O)[C@@H](O[C@H]5[C@H](O)[C@@H](O)[C@@H](O[C@H]6[C@H](O)[C@@H](O)[C@@H](O[C@H]7[C@H](O)[C@@H](O)[C@@H](O[C@H]8[C@H](O)[C@@H](O)[C@@H](O[C@H]9[C@H](O)[C@@H](O)[C@@H](O[C@H]1[C@H](O)[C@H]2O)O[C@@H]9CSCCO)O[C@@H]8CSCCO)O[C@@H]7CSCCO)O[C@@H]6CSCCO)O[C@@H]5CSCCO)O[C@@H]4CSCCO)O[C@@H]3CSCCO [example 13, 6-Per-deoxy-6-per(2-hydroxyethyl)thio-γ-cyclodextrin]",(2.0) μmol · kg^−1,96,0.20
"CNC(=O)CSCC1OC2OC3C(CSCC(=O)NC)OC(OC4C(CSCC(=O)NC)OC(OC5C(CSCC(=O)NC)OC(OC6C(CSCC(=O)NC)OC(OC7C(CSCC(=O)NC)OC(OC8C(CSCC(=O)NC)OC(OC9C(CSCC(=O)NC)OC(OC1C(O)C2O)C(O)C9O)C(O)C8O)C(O)C7O)C(O)C6O)C(O)C5O)C(O)C4O)C(O)C3O (stereo not drawn) [example 14, 6-Per-deoxy-6-per(N-methylamidomethyl)thio-γ-cyclodextrin]",(7.3) μmol · kg^−1,102,1.54
"CC(CSC[C@H]1O[C@@H]2O[C@H]3[C@H](O)[C@@H](O)[C@@H](O[C@H]4[C@H](O)[C@@H](O)[C@@H](O[C@H]5[C@H](O)[C@@H](O)[C@@H](O[C@H]6[C@H](O)[C@@H](O)[C@@H](O[C@H]7[C@H](O)[C@@H](O)[C@@H](O[C@H]8[C@H](O)[C@@H](O)[C@@H](O[C@H]9[C@H](O)[C@@H](O)[C@@H](O[C@H]1[C@H](O)[C@H]2O)O[C@@H]9CSCC(C)C(=O)[O-])O[C@@H]8CSCC(C)C(=O)[O-])O[C@@H]7CSCC(C)C(=O)[O-])O[C@@H]6CSCC(C)C(=O)[O-])O[C@@H]5CSCC(C)C(=O)[O-])O[C@@H]4CSCC(C)C(=O)[O-])O[C@@H]3CSCC(C)C(=O)[O-])C(=O)[O-].[Na+].[Na+].[Na+].[Na+].[Na+].[Na+].[Na+].[Na+] (stereo partly drawn) [example 15, 6-Per-deoxy-6-per(2-carboxypropyl)thio-γ-cyclodextrin, Sodium Salt]",(0.48) μmol · kg^−1,103,0.10
"O=C([O-])CCCSCC1OC2OC3C(CSCCCC(=O)[O-])OC(OC4C(CSCCCC(=O)[O-])OC(OC5C(CSCCCC(=O)[O-])OC(OC6C(CSCCCC(=O)[O-])OC(OC7C(CSCCCC(=O)[O-])OC(OC8C(CSCCCC(=O)[O-])OC(OC1C(O)C2O)C(O)C8O)C(O)C7O)C(O)C6O)C(O)C5O)C(O)C4O)C(O)C3O.[Na+].[Na+].[Na+].[Na+].[Na+].[Na+].[Na+] (stereo not drawn) [example 16, 6-Per-deoxy-6-per(3-carboxypropyl)thio-β-cyclodextrin, Sodium Salt]",(3.2) μmol · kg^−1,100,0.5
"O=S(=O)([O-])CCSCC1OC2OC3C(CSCCS(=O)(=O)[O-])OC(OC4C(CSCCS(=O)(=O)[O-])OC(OC5C(CSCCS(=O)(=O)[O-])OC(OC6C(CSCCS(=O)(=O)[O-])OC(OC7C(CSCCS(=O)(=O)[O-])OC(OC8C(CSCCS(=O)(=O)[O-])OC(OC9C(CSCCS(=O)(=O)[O-])OC(OC1C(O)C2O)C(O)C9O)C(O)C8O)C(O)C7O)C(O)C6O)C(O)C5O)C(O)C4O)C(O)C3O.[Na+].[Na+].[Na+].[Na+].[Na+].[Na+].[Na+].[Na+] (stereo not drawn) [example 17, 6-Per-deoxy-6-per(2-sulfoethyl)thio-γ-cyclodextrin, Sodium Salt]",(1.7) μmol · kg^−1,106,0.055
"OCC(CO)(CO)CSCC1OC2OC3C(CSCC(CO)(CO)CO)OC(OC4C(CSCC(CO)(CO)CO)OC(OC5C(CSCC(CO)(CO)CO)OC(OC6C(CSCC(CO)(CO)CO)OC(OC7C(CSCC(CO)(CO)CO)OC(OC8C(CSCC(CO)(CO)CO)OC(OC9C(CSCC(CO)(CO)CO)OC(OC1C(O)C2O)C(O)C9O)C(O)C8O)C(O)C7O)C(O)C6O)C(O)C5O)C(O)C4O)C(O)C3O (stereo not drawn) [example 18, 6-Per-deoxy-6-per(2,2-di(hydroxymethyl)-3-hydroxy-propyl)thio-γ-cyclodextin]",(4.9) μmol · kg^−1,63,2.9
"OC1C2OC(CSCCCc3nnn[n-]3)C(OC3OC(CSCCCc4nnn[n-]4)C(OC4OC(CSCCCc5nnn[n-]5)C(OC5OC(CSCCCc6nnn[n-]6)C(OC6OC(CSCCCc7nnn[n-]7)C(OC7OC(CSCCCc8nnn[n-]8)C(OC8OC(CSCCCc9nnn[n-]9)C(OC9OC(CSCCCc%10nnn[n-]%10)C(O2)C(O)C9O)C(O)C8O)C(O)C7O)C(O)C6O)C(O)C5O)C(O)C4O)C(O)C3O)C1O.[Na+].[Na+].[Na+].[Na+].[Na+].[Na+].[Na+].[Na+] (stereo not drawn) [example 19, 6-Per-deoxy-6-per(3-(tetrazol-5-yl)propyl)thio-γ-cyclodextrin, Sodium Salt]",(1.2) μmol · kg^−1,109,0.22
"OC[C@H]1O[C@@H]2O[C@H]3[C@H](O)[C@@H](O)[C@@H](O[C@H]4[C@H](O)[C@@H](O)[C@@H](O[C@H]5[C@H](O)[C@@H](O)[C@@H](O[C@H]6[C@H](O)[C@@H](O)[C@@H](O[C@H]7[C@H](O)[C@@H](O)[C@@H](O[C@H]8[C@H](O)[C@@H](O)[C@@H](O[C@H]1[C@H](O)[C@H]2O)O[C@@H]8CO)O[C@@H]7CO)O[C@@H]6CO)O[C@@H]5CO)O[C@@H]4CO)O[C@@H]3CO [β-cyclodextrin, reference compound]",(113) μmol · kg^−1,93,20
"OC[C@H]1O[C@@H]2O[C@H]3[C@H](O)[C@@H](O)[C@@H](O[C@H]4[C@H](O)[C@@H](O)[C@@H](O[C@H]5[C@H](O)[C@@H](O)[C@@H](O[C@H]6[C@H](O)[C@@H](O)[C@@H](O[C@H]7[C@H](O)[C@@H](O)[C@@H](O[C@H]8[C@H](O)[C@@H](O)[C@@H](O[C@H]9[C@H](O)[C@@H](O)[C@@H](O[C@H]1[C@H](O)[C@H]2O)O[C@@H]9CO)O[C@@H]8CO)O[C@@H]7CO)O[C@@H]6CO)O[C@@H]5CO)O[C@@H]4CO)O[C@@H]3CO [γ-cyclodextrin, reference compound]",(47) μmol · kg^−1,104,4
